Publication PMC5218480 (PLoS ONE, 2017)

Tested on: MV-4-11 cells
Assay: Gene expression microarray analysis (Affymetrix PrimeView) and GSEA
Type: cell-based, human
Settings: gene VPS36, vacuolar protein sorting 36 homolog; Azacitidine 1 mM; LIST F

Nc1ncn([C@@H]2O[C@H](CO)[C@@H](O)[C@H]2O)c(=O)n1 [azacitidine]
RFU, VPS36 (ProbeSet 11739960_a_at): 118.04 RFU
